Legend:
[1] = target: T1, CYP83B1 (Arabidopsis thaliana, UniProt O65782); experiment: Reconstitution with oximes, turnover numbers by GC-MS; type: biochemical; set-up: made in house; host or cells: yeast WAT11 cells, pYeDP60 vector; microsomes; conditions: CYP83B1 0.5 μM, 1 mM substrate, β-mercaptoethanol thiol donor, 20 min at 28° C.
T1 sequence (O65782 1-499): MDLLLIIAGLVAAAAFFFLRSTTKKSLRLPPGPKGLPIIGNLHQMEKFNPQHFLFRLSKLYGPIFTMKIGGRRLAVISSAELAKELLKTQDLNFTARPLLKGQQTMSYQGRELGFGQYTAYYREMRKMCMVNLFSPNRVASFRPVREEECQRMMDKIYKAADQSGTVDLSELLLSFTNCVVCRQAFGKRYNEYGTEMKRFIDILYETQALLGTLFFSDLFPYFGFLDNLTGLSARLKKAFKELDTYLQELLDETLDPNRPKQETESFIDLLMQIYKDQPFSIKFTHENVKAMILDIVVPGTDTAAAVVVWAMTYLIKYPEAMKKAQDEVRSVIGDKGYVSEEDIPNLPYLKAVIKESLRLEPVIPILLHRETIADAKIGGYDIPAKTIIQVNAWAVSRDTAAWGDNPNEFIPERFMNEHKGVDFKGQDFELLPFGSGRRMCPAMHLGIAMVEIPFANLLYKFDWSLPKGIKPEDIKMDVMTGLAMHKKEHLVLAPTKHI
Method: (§1) Turnover numbers were calculated based on the relative areas under the substrate and product peaks. Silylated substrates and products were identified by their fragmentation pattern in both electron impact mode and chemical ionization mode.
(§2) Reconstitution experiments were also conducted to compare the ability of CYP83A1 and CYP83B1 to metabolize other oximes. The putative substrates tested were p-hydroxyphenylacetaldoxime derived from tyrosine and phenylacetaldoxime derived from phenylalanine. In all studies, β-mercaptoethanol was the thiol donor. […] Conversely, the turnover of p-hydroxyphenylacetaldoxime was higher using CYP83A1 compared to CYP83B 1. Phenylacetaldoxime was identified as a substrate for CYP83A1 as well as for CYP83B1 but the turnover numbers were low (Table 1).

[2] = target: T2, CYP83A1 (Arabidopsis thaliana, UniProt P48421); experiment: as above; type: biochemical; set-up: made in house; host or cells: yeast WAT11 cells, pYeDP60 vector; microsomes; conditions: CYP83A1 0.5 μM, 1 mM substrate, β-mercaptoethanol thiol donor, 20 min at 28° C.
T2 sequence (P48421 1-502): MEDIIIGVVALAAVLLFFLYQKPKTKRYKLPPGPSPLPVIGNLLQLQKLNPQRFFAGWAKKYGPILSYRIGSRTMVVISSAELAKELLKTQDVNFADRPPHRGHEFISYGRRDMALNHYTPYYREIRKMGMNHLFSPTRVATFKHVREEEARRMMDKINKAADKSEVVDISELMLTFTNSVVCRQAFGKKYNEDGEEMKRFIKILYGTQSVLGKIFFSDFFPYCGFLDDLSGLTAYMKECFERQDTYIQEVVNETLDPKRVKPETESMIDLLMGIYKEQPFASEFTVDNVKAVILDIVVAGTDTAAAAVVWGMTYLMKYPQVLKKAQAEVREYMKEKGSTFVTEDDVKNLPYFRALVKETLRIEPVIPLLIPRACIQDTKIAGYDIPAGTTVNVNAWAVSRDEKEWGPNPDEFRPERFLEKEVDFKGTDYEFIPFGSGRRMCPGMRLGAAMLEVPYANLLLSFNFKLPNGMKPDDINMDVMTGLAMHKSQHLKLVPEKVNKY
Method: as §1, §2

[3] = target: T1, CYP83B1; experiment: biochemical; conditions: for Type II spectrum (ligand binding to active site) / Relative affinity for ligand binding, from amplitudes of type II spectra: CYP83B1, 200 μM ligand
Excerpt: (§3) FIG. 6 is a spectral characterization of CYP83A1 and CYP83B1. […] 1) tryptamine, 2) β-phenylethylamine, 3) tyramine, 4) n-octylamine, 5) 5-OH-tryptamine, 6) 3-OH-tyramine, B) baseline.
(§4) To compensate for ligand absorbance, the experimental data were fitted to a hyperbolic curve using the equation A=Amax*X/(Ks+X)+C*X, where A is the amplitude of the spectra, X the concentration of ligand, and C the contribution from ligand absorbance. The computed regression curve is shown as well as the experimental data points.
(§5) Microsomes from yeast WAT11 cells expressing the CYP83A1 and CYP83B1 cDNA using the pYeDP60 vector were isolated and the amount of functional enzyme quantified essentially according to Pompon et al. (1996) Methods Enzymol. 272:51-64. […] 13:101-111 and references therein. Vmax and Km were determined as previously described using 2.2 nM of CYP83A1 or CYP83B1 and 50 mM L-cysteine as thiol donor (Bak et al. (2001) Plant Cell. 13:101-111). […] Vmax, Km, and Ks were calculated using SigmaPlot 5.0 (SPSS Inc.). For analysis of CYP83B1 activity in the presence or absence of thiol donors, recombinant CYP83B1 was reconstituted and analyzed as previously described (Bak et al. (2001) Plant Cell. 13:101-111).
(§6) To characterize the topology of the active sites of […] and CYP83B 1, we have taken advantage of the ability of nitrogen-containing ligands like primary amines to produce type II spectra with cytochrome P450 enzymes by binding to the active site bringing the electron lone pairs of the amine group in close vicinity to the heme iron (Jefcoate C. R. (1978) Methods Enzymol 27:258-279). This gives rise to a characteristic spectrum with a trough around 390 nm and a peak around 425 nm.
(§7) By titrating the amplitude of the type II difference spectra with increasing concentrations of ligand, Ks values were determined for tryptamine and β-phenylethylamine (FIG. 7).

[4] = target: T2, CYP83A1; experiment: biochemical; conditions: for Type II spectrum (ligand binding to active site) / Relative affinity for ligand binding, from amplitudes of type II spectra: CYP83A1, 200 μM ligand
Excerpt: as §3, §4, §5, §6, §7

[5] = target: T1, CYP83B1; set-up: made in house; host or cells: yeast WAT11 cells, pYeDP60 vector; microsomes; conditions: cited from earlier work
[6] = target: T1, CYP83B1; experiment: Kinetics of indole-3-acetaldoxime metabolism by recombinant enzyme in yeast microsomes
Method: Computed regression curves as well as the experimental data points are shown. The correlation coefficients (R^2) for CYP83B1 and CYP83A1 regression analyses are 0.985 and 0.999, respectively.
as §5

[7] = tested on: ON=CCc1c[nH]c2ccccc12; experiment: cells, lysate or membranes named; conditions: other: CYP83A1 in yeast microsomes, 2.2 nM enzyme, 50 mM L-cysteine as thiol donor
[8] = substrate: ON=CCc1c[nH]c2ccccc12; experiment: cells, lysate or membranes named; conditions: other: CYP83B1 in yeast microsomes, 2.2 nM enzyme, 50 mM L-cysteine as thiol donor

For ON=CCc1ccc(O)cc1 [p-hydroxyphenylacetaldoxime], the Turnover p-hydroxyphenylacetaldoxime [1] was 9.8 min⁻¹ and the Turnover p-hydroxyphenylacetaldoxime [2] was 25 min⁻¹.

For N#CCc1c[nH]c2ccccc12 [Indole-3-acetonitrile], the “Type II spectrum (ligand binding to active site)” value (from here on “Type II spectrum”) [3] was “did not produce a type II spectrum” and the “Type II spectrum” value [4] was “did not produce a type II spectrum”.

With NCCc1c[nH]c2ccccc12 [tryptamine] the Kd [3] was 18 ± 5 µM, the “Relative affinity for ligand binding, from amplitudes of type II spectra” value (“Relative affinity for ligand binding” below) [3] was “tryptamine >>β-phenylethylanine>n-octylamine>tyramine” and the “Fold stronger binding to CYP83B1 compared to CYP83A1” value ([3]; from Ks values) was 13 fold. The “Fold stronger ligand for CYP83B1 compared to β-phenylethylamine” value ([3]; from Ks values) was 30 fold, the Kd [4] was 240 ± 180 µM and the “Relative affinity for ligand binding” value [4] was “n-octylamine>>α-phenylethylamine=tryptarine>tyramine”. For the same molecule, the “Inhibition of metabolism of indole-3-acetaldoxime” value [5] was “inhibits metabolism of indole-3-acetaldoxime”.

With NCCc1ccccc1 [β-phenylethylamine] the Kd [3] was 540 ± 180 µM, the “Relative affinity for ligand binding” value [3] was “tryptamine >>β-phenylethylanine>n-octylamine>tyramine” and the “Type II spectrum” value [3] was “type II spectra were observed”. For the same molecule, the Kd [4] was 390 ± 70 µM, the “Relative affinity for ligand binding” value [4] was “n-octylamine>>α-phenylethylamine=tryptarine>tyramine” and the “Type II spectrum” value [4] was “type II spectra were observed”.

With ON=CCc1ccccc1 [phenylethylacetaldoxime, phenylacetaldoxime] the Turnover phenylethylacetaldoxime [1] was 15 min⁻¹ and the Turnover phenylethylacetaldoxime [2] was 7.2 min⁻¹.

With NCCc1c[nH]c2ccc(O)cc12 [5-OH-tryptamine] the “Type II spectrum” value [3] was “abolished binding” and the “Type II spectrum” value [4] was “abolished binding”.

For ON=CCc1c[nH]c2ccccc12 [indole-3-acetaldoxime], the “Fold higher catalytic efficiency (Vmax/Km), CYP83B1 compared to CYP83A1” value ([6]; indole-3-acetaldoxime as substrate) was 20 fold, the “Fold difference in Km / affinity, CYP83B1 versus CYP83A1” value ([6]; indole-3-acetaldoxime, higher affinity (lower Km) for CYP83B1) was 50 fold and the “Turnover, indole-3-acetaldoxime” value [1] was 26 min⁻¹. For the same molecule, the “Turnover, indole-3-acetaldoxime” value [2] was 10 min⁻¹.

In the case of CYP83A1 (Arabidopsis thaliana), the Km [7] is reported as 150 ± 15 µM and the kcat [7] is reported as 140 ± 10 min⁻¹.

With CCCCCCCCN [n-octylamine] the “Relative affinity for ligand binding” value [3] was “tryptamine >>β-phenylethylanine>n-octylamine>tyramine”, the “Type II spectrum” value [3] was “type II spectra were observed” and the “Relative affinity for ligand binding” value [4] was “n-octylamine>>α-phenylethylamine=tryptarine>tyramine”. For the same molecule, the “Type II spectrum” value [4] was “type II spectra were observed”.

B1: CYP83B1 (Arabidopsis thaliana) (protein)
chain: T1 sequence (O65782 1-499)
B1 gave a Km [8] of 3.1 ± 0.4 µM.
